# “Also recorded” adds a separate entry of the source.
# Legend:
# vascular mesenteric bed = experiment: Rat arteriolar mesenteric bed: acetylcholine-evoked decrease in perfusion pressure after 4-week oral treatment; assay type: in vivo, alloxan-diabetic male Wistar rats; settings: for effect on microvascular endothelial dysfunction: chronic (4-week) oral administration, highest acetyl choline concentrations, FIG. 4
# Description: Male Wistar rats, weighing between 230-250 g, fed regular chow, with free access to water were separated in four groups (n=10/each). The first two groups, termed normoglycemic, were treated with saline (0.1 mL/100 g/12 h) by the oral route (intragastric gavage) or untreated for four weeks. The second two groups, hyperglycemic, were treated with saline (0.1 mL/100 g/12 h) or treated with D-chiro-inositol (20 mg/kg/12 h) under the same protocol. […] Diabetes was induced by a single intravenous injection of 45 mg/kg alloxan as described by Sannomiya et al., 1997 ( ). Diabetes was diagnosed 96 h after injection by blood glucose assay >200 mg/dL. All protocols were approved by the local committee and follow the Guide for the Care and Use of Laboratory Animals published by the US National Institutes of Health (NIH Publication No. 85-23, revised 1996).
# The mesentery was carefully removed by cutting close to the intestinal border with a small scissors. […] The vascular bed was rapidly perfused with warm KHS (37° C.; pH 7.4; gassed with 95% O2 in 5% CO2) in an open system with a constant flow of 4 ml/min maintained with a peristaltic pump. Alterations in perfusion pressure were continuously recorded in a four-channel polygraph (Narco Biosystems, Houston, Tex., USA) by means of a pressure transducer (P23 Gould Stratham, Oxnard, Calif., USA). After a 30 minute equilibration period, phenylephrine (1 to 5 μM) was infused by means of an infusion pump at a constant rate (0.1 ml/min) in order to achieve a stable perfusion pressure (100-120 mm Hg). Dose response curves were performed with vasodilators, i.e. acetylcholine (Ach; 10^-9 to 10^-3 M). Drugs were injected as 50 μL boluses, previously shown not to effect perfusion pressure in a side arm just above the cannula in the mesenteric artery. At least 6 separate experiments were performed each in duplicate.
# penile corpus cavernosus = experiment: Rabbit penile corpus cavernosus: relaxation to electrical field stimulation after 60 min incubation; set-up: species or system low dose alloxan-diabetic rabbit; settings: 1 μM; for restoration of vasorelaxant effect of electrical stimulation of the pudendal nerve: EFS 2-16 Hz, FIG. 8
# Description: Male California rabbits, weighing 2-2.5 kg, were provided by the vivarium of the Biomedicine Institute-UFC. Diabetes was induced by intraperitoneal injection of alloxan (150 mg/kg) and only animals with plasma glucose concentration above 200 mg/dl were included in the study. Age-matched euglycemic rabbits were used as controls.
# Kidneys and aortic rings were harvested from diabetic rabbits after 3 weeks of alloxan injection. The animals were sacrificed under sodium pentobarbital anesthesia (Hypnol®, 150-200 mg/kg). […]. Rabbit kidneys were obtained from male New Zealand rabbits (1-1.5 kg) after cannulation of the renal artery in situ. [Thereafter the organ is rapidly perfused with warm KHS at 37° C., pH 7.4 and gassed with 95% O2 in 5% CO2 in an open system with a constant flow adjusted to yield 1 mL/g/min and maintained by a peristaltic pump. The alterations in perfusion pressure are continuously recorded in a four-channel polygraph (Narco Biosystems, Houston, Tex., USA) by means of a pressure transducer (P23 Gould Stratham, Oxnard, Calif., USA). After a 30 minute equilibration period, phenylephrine (1 to 5 μM) is infused by means of an infusion pump at a constant rate (0.1 ml/min) in order to achieve a stable perfusion pressure (100-120 mm Hg). Concentration-response curves are performed to the vasodilators, i.e. acetylcholine (Ach; 10^-9 to 10^-3 M). Drugs are injected as a 50 μL bolus, previously shown not to effect perfusion pressure in an arm side just above the cannula in the renal artery.] Following penectomy, the corpus cavernosum was dissected in Krebs solution and cleared of the tunica albuginea and surrounding tissues. Strips (2 cm) were mounted vertically in isometric baths (5 mL) in Krebs-Henseleit solution (37° C., pH 7.4 gassed with 95% O2 in 5% CO2) enriched with indomethecin (10 μM) and guanethedine (10 μM) in order to avoid prostanoid or neuronal norandrenergic interaction. After a 60 minute period for stabilization, tissues were precontracted with 10 μM phenylephrine in order to increase the basal tonus. Thereafter, frequency response curves to transmural electrical field stimulations (EFS—square wave pulses: 10 s train; 20 V, 0.5 ms, 2-16 Hz) were performed until two stable reproducible curves were attained. Then, frequency response curves were repeated after 60 min incubation with saline or 1 μM pinitol, DCI or db-DCI in the alloxan-diabetic rabbits. They are perfused with KHS containing 1 μM D-chiro-inositol, pinitol, dibutyryl D-chiro-inositol, myo-inositol or saline for 60 min. Dose response curves for acetylcholine are then performed following prior phenylephrine vasoconstriction as described. At least 6 separate experiments were performed each in duplicate.
# diabetic aortic rings = experiment: NO-induced relaxation in diabetic aortic rings contracted with phenylephrine; settings: 0.1 μM phenylephrine, inositol 10 μM, 1 hour, FIG. 14
# Description: NO action was investigated in aortic rings and RbCC. […] The data in FIGS. 14 are expressed as mean±SEM of 5 experimental units. * p<0.05, ANOVA followed by Tukey-Kramer, diab (C) vs. Inositol treated. # p<0.05, ANOVA followed by Tukey-Kramer, Eugly vs. Inositol treated. In FIG. 14, Veh=vehicle; C=diabetic control; Diab=diabetic control; Eugly=euglycemic tissue. Relaxation was restored toward or to normal by incubation with inositols.
SMILES,effect on microvascular endothelial dysfunction (vascular mesenteric bed),effect on microvascular endothelial dysfunction (vascular mesenteric bed; listed as D-chiro-inositol),"maximal decrease in perfusion pressure to acetylcholine (vascular mesenteric bed; tissues from alloxan-diabetic rats treated with D-chiro-inositol 20 mg/kg/12 h by gavage for 4 weeks, saline-treated diabetic 23±5%, normoglycemic 61±3.7%) [%]",restoration of vasorelaxant effect of electrical stimulation of the pudendal nerve (penile corpus cavernosus),relaxation to added NO (diabetic aortic rings),effect on microvascular endothelial dysfunction (vascular mesenteric bed; listed as dibutyryl D-chiro-inositol),restoration of vasorelaxant effect at EFS of 4 Hz (penile corpus cavernosus; EFS 4 Hz)
"OC1C(O)C(O)C(O)C(O)C1O [DCI, D-chiro-inositol]",approximately equally effective,effective,52±6,restoration of vasorelaxant effect,restored relaxation to normal,–,–
"CCCC(=O)O[C@@H]1[C@@H](O)[C@@H](O)[C@H](O)[C@H](O)[C@H]1OC(=O)CCC [dbDCI, 3,4-dibutyryl-D-chiroinositol]",perhaps slightly better than pinitol and DCI,–,–,restoration of vasorelaxant effect; also recorded: greatest effect at all levels of electrical stimulation,restored relaxation to normal,perhaps slightly better than pinitol and D-chiro-inositol,Almost complete restoration

# — patent US20060258754A1, “Method of treating endothelial dysfunction, oxidative stress and related diseases” (priority 2004, published 2006)
